system: T. cruzi amastigote (Td Tomato-modified) in Vero cells; test: In vitro IC50 measurement of T. cruzi amastigote killing using Td Tomato-modified T. cruzi; format: cell-based; details: Trypanosoma cruzi, 72 h, fluorescence, read-out: IC50: I Org. amastigote Growth T. cruzi 3 d
Protocol: Example 254. In Vitro IC50 Measurement of T. cruzi Amastigote Killing Using Td Tomato-Modified T. cruzi
The T. cruzi parasites used in this assay were genetically modified to express Td Tomato fluorescent protein. Vero cells (African green monkey kidney epithelial cells) were harvested from continuous cultures using trypsin and added to the inner 60 wells of 96-well Greiner Bio One plates (plate catalog #655090) at 200 ul/well of […]. Cells were allowed to adhere for 1 h before infection with T. cruzi. T. cruzi for infection were harvested from previously-infected Vero cells, washed, pelleted and resuspended at 5×10^6/mL. 50 uL of parasites were added to each well containing Vero cells. Compounds were prepared from 5 mM stock concentrations in DMSO to final concentrations in wells ranging from 5 uM to 5 nM. Wells were provided for negative controls, lacking compounds. Plates were placed into a 37° C. incubator for 20 min, then a “Day 0” reading was taken on a Synergy H4 plate reader to record initial fluorescence levels, at 544 (excitation) and 612 nm (emission). 96-well plates were placed in Tupperware containers with wet paper towels and incubated at 37° C. incubator for 72 h. After 72 h plates were reread (Day 3 reading) and data analyzed using Excel and/or Graphpad software. Day 0 fluorescence was subtracted from Day 3 to remove input parasite fluorescence. Growth curves are generated and 50% and 90% inhibitory concentrations are determined by nonlinear regression analysis.

First: COCC1(COC(=O)[C@@H](NC(=O)c2ccc3c(c2C)B(O)OC3)C(C)C)COC1 [Example 6-158, (3-(Methoxymethyl)oxetan-3-yl)methyl (1-hydroxy-7-methyl-1,3-dihydrobenzo[c][1,2]oxaborole-6-carbonyl)-L-valinate]
Second: Cc1c(C(=O)N[C@H](C(=O)OCC2(O)CCOC2)C(C)C)ccc2c1B(O)OC2 (stereo partly drawn) [Example 6-250, (3-hydroxytetrahydrofuran-3-yl)methyl (1-hydroxy-7-methyl-1,3-dihydrobenzo[c][1,2]oxaborole-6-carbonyl)-L-valinate]
The IC50 of the first is lower: 21 to 999 nM for the first, no less than 1000 nM for the second.

First: Cc1c(C(=O)N[C@H](C(=O)OCCN2CC3CC(C2)O3)C(C)C)ccc2c1B(O)OC2 [Example 6-231, 2-(6-oxa-3-azabicyclo[3.1.1]heptan-3-yl)ethyl (1-hydroxy-7-methyl-1,3-dihydrobenzo[c][1,2]oxaborole-6-carbonyl)-L-valinate]
Second: Cc1c(C(=O)N[C@H](C(=O)OC[C@H]2CCOC2)C(C)C)ccc2c1B(O)OC2 [Example 6-235, ((S)-tetrahydrofuran-3-yl)methyl (1-hydroxy-7-methyl-1,3-dihydrobenzo[c][1,2]oxaborole-6-carbonyl)-L-valinate]
The IC50 of the first is higher: 21 to 999 nM for the first, no more than 20 nM for the second.

Cc1c(C(=O)N[C@H](C(=O)OCc2cncc(N3CCNCC3)n2)C(C)C)ccc2c1B(O)OC2 [Example 6-205, (6-(piperazin-1-yl)pyrazin-2-yl)methyl (1-hydroxy-7-methyl-1,3-dihydrobenzo[c][1,2]oxaborole-6-carbonyl)-L-valinate] and Cc1c(C(=O)N[C@H](C(=O)OCc2cccc(N3CCNCC3)n2)C(C)C)ccc2c1B(O)OC2 [Example 6-213, (6-(piperazin-1-yl)pyridin-2-yl)methyl (1-hydroxy-7-methyl-1,3-dihydrobenzo[c][1,2]oxaborole-6-carbonyl)-L-valinate] cannot be ordered by IC50: no less than 1000 nM for the first, no less than 1000 nM for the second.

Compared with Cc1c(C(=O)N[C@H](C(=O)OCc2ccc3ncccc3c2)C(C)C)ccc2c1B(O)OC2 [Example 6-127, Quinolin-6-ylmethyl (1-hydroxy-7-methyl-1,3-dihydrobenzo[c][1,2]oxaborole-6-carbonyl)-L-valinate], Cc1c(C(=O)N[C@H](C(=O)OCc2ccccn2)C(C)C)ccc2c1B(O)OC2 [Example 6-191, Pyridin-2-ylmethyl (1-hydroxy-7-methyl-1,3-dihydrobenzo[c][1,2]oxaborole-6-carbonyl)-L-valinate] is lower in IC50: 21 to 999 nM for the first, no more than 20 nM for the second.

COc1c(C(=O)N[C@H](C(=O)OCc2ccccc2)C(C)C)ccc2c1B(O)OC2 [Example 6-194, Benzyl (1-hydroxy-7-methoxy-1,3-dihydrobenzo[c][1,2]oxaborole-6-carbonyl)-L-valinate] and CC(C)[C@H](NC(=O)c1ccc2c(c1C(F)F)B(O)OC2)C(=O)OCc1ccccc1 [Example 6-079, Benzyl (7-(difluoromethyl)-1-hydroxy-1,3-dihydrobenzo[c][1,2]oxaborole-6-carbonyl)-L-valinate] fall in the same range of IC50: 21 to 999 nM for the first, 21 to 999 nM for the second.

Cc1c(C(=O)N[C@H](C(=O)OC[C@@H]2CCOC2)C(C)C)ccc2c1B(O)OC2 [Example 6-234, ((R)-tetrahydrofuran-3-yl)methyl (1-hydroxy-7-methyl-1,3-dihydrobenzo[c][1,2]oxaborole-6-carbonyl)-L-valinate] and Cc1c(C(=O)N[C@H](C(=O)OCc2cncc(N(C)C)n2)C(C)C)ccc2c1B(O)OC2 [Example 6-232, (6-(dimethylamino)pyrazin-2-yl)methyl (1-hydroxy-7-methyl-1,3-dihydrobenzo[c][1,2]oxaborole-6-carbonyl)-L-valinate] cannot be ordered by IC50: no more than 20 nM for the first, no more than 20 nM for the second.

Work on Cc1c(C(=O)N[C@H](C(=O)O[C@@H](C)c2ccccc2)C(C)C)ccc2c1B(O)OC2 [Example 6-199, (S)-1-phenylethyl (1-hydroxy-7-methyl-1,3-dihydrobenzo[c][1,2]oxaborole-6-carbonyl)-L-valinate] yielded an IC50 of 21 to 999 nM.

Reference: patent publication US11578087B2, “Oxaborole esters and uses thereof” (priority 2016, dated 2023)
